Test results published in ChEMBL document CHEMBL3739397, “Identification of an indoletriazoleamino acid conjugate as a highly effective antifungal agent” (2015).
≈ marks a conversion by molar mass, not a printed value. Calls of active or inactive are those of the source. The rule behind the calls is not given here.

Experiments:
[1] = test system: Candida albicans; test: Antifungal activity against Candida albicans BWP17 at > MIC80 compound added to secondary culture for 3 days by spot assay; assay type: functional, organism-based
[2] = test system: Candida albicans; test: Antifungal activity against Candida albicans BWP17 assessed as increase in chitin level at 1/10th of MIC80 by spot assay in presence of CFW; assay type: functional, organism-based
[3] = test system: Candida albicans; test: Antifungal activity against Candida albicans BWP17 at 1.25 mg/ml after 48 hrs by broth dilution method; assay type: functional; conditions: BWP17, BWP17, 48 h
[4] = test system: Candida albicans; test: Antifungal activity against Candida albicans BWP17 at MIC80 for 3 days by spot assay in presence of ketoconazole; assay type: functional, organism-based
[5] = test system: Candida albicans; test: Antifungal activity against Candida albicans BWP17 assessed as zone of inhibition at 2 mg/ml for 48 hrs by disk diffusion method (reference value: 0.6 cm); assay type: functional
[6] = test system: Candida albicans; test: Antifungal activity against Candida albicans BWP17 at 0.3 mg/ml after 48 hrs by broth dilution method; assay type: functional; conditions: BWP17, BWP17, 48 h
[7] = test system: Candida albicans; test: Antifungal activity against Candida albicans BWP17 assessed as cell wall damage measured as cell clumping at MIC80 by confocal microscopic analysis; assay type: functional, organism-based
[8] = test system: Candida albicans; test: Antifungal activity against Candida albicans BWP17 assessed as zone of inhibition at 0.5 mg/ml for 48 hrs by disk diffusion method (reference value: 0.6 cm); assay type: functional
[9] = test system: Candida albicans; test: Antifungal activity against Candida albicans BWP17 assessed as increase in chitin level at MIC80 by CFW staining based microscopic analysis; assay type: functional, organism-based
[10] = test system: Candida albicans; test: Antifungal activity against Candida albicans BWP17 after 48 hrs by broth dilution method; assay type: functional; conditions: BWP17, 48 h
[11] = test system: Candida albicans; test: Antifungal activity against Candida albicans BWP17 at MIC80 after 2 days by spot assay in presence of terbinafine; assay type: functional, organism-based
[12] = test system: Candida albicans; test: Antifungal activity against Candida albicans BWP17 assessed as cell shrinkage and deposition of cellular content on cell surface at 312.5 ug/ml by scanning electron microscopic analysis; assay type: functional, organism-based
[13] = test system: Candida albicans; test: Antifungal activity against Candida albicans BWP17 assessed as mild growth inhibition at 400 ug/ml after 24 hrs by spot assay; assay type: functional, organism-based
[14] = test system: Candida albicans; test: Antifungal activity against Candida albicans BWP17 at 400 ug/ml after 48 hrs by spot assay; assay type: functional, organism-based
[15] = test system: Candida albicans; test: Antifungal activity against Candida albicans BWP17 assessed as zone of inhibition at 1 mg/ml for 48 hrs by disk diffusion method (reference value: 0.6 cm); assay type: functional
[16] = test system: Candida albicans; test: Antifungal activity against Candida albicans BWP17 at 1/10th of MIC80 for 3 days by spot assay in presence of ketoconazole; assay type: functional, organism-based
[17] = test system: Candida albicans; test: Antifungal activity against Candida albicans BWP17 at 0.6 mg/ml after 48 hrs by broth dilution method; assay type: functional; conditions: BWP17, BWP17, 48 h
[18] = test system: Candida albicans; test: Antifungal activity against Candida albicans BWP17 assessed as cell shrinkage and deposition of cellular content on cell surface at 312.5 ug/ml by scanning electron microscopic analysis in presence of ketocanozole; assay type: functional, organism-based
[19] = test system: Candida albicans; test: Antifungal activity against Candida albicans BWP17 at 1/10th of MIC80 for 3 days by spot assay; assay type: functional, organism-based
[20] = test system: Candida albicans; test: Antifungal activity against Candida albicans BWP17 assessed as necrotic cells incubated for overnight by PI staining based microscopic analysis; assay type: functional, organism-based
[21] = test system: Candida albicans; test: Antifungal activity against Candida albicans BWP17 at 62.5 ug/ml for 3 days by spot assay in presence of terbinafine; assay type: functional, organism-based
[22] = test system: Candida albicans; test: Antifungal activity against Candida albicans BWP17 assessed as necrotic cells at 312.5 ug/ml incubated for overnight by PI staining based microscopic analysis in presence of ketoconazole; assay type: functional, organism-based
[23] = test system: Candida albicans; test: Antifungal activity against Candida albicans BWP17 at 0.04 mg/ml after 48 hrs by broth dilution method; assay type: functional; conditions: BWP17, BWP17, 48 h
[24] = test system: Candida albicans; test: Antifungal activity against Candida albicans BWP17 assessed as cell wall damage measured as cell clumping at MIC80 by confocal microscopic analysis in presence of ketoconazole; assay type: functional, organism-based
[25] = test system: Candida albicans; test: Antifungal activity against Candida albicans BWP17 at MIC80 for 3 days by spot assay; assay type: functional, organism-based
[26] = test system: Candida albicans; test: Antifungal activity against Candida albicans BWP17 at MIC80 after 3 days by spot assay in presence of terbinafine; assay type: functional, organism-based
[27] = test system: Candida albicans; test: Antifungal activity against Candida albicans BWP17 assessed as increase in chitin level at MIC80 by CFW staining based microscopic analysis in presence of ketoconazole; assay type: functional, organism-based
[28] = test system: Candida albicans; test: Antifungal activity against Candida albicans BWP17 at 0.16 mg/ml after 48 hrs by broth dilution method; assay type: functional; conditions: BWP17, BWP17, 48 h
[29] = test system: Candida albicans; test: Antifungal activity against Candida albicans BWP17 assessed as cell shrinkage and deposition of cellular content on cell surface at < MIC80 by scanning electron microscopic analysis; assay type: functional, organism-based
[30] = test system: Candida albicans; test: Antifungal activity against Candida albicans BWP17 at 0.08 mg/ml after 48 hrs by broth dilution method; assay type: functional; conditions: BWP17, BWP17, 48 h
[31] = test system: Candida albicans; test: Antifungal activity against Candida albicans BWP17 assessed as necrotic cells at […] incubated for overnight by PI staining based microscopic analysis; assay type: functional, organism-based

`O=C(O)CC[C@H](NC(=O)C(=O)c1cn(Cc2cn(-c3ccccc3)nn2)c2ccccc12)C(=O)O` was tested, and the Activity [1] was “Active”, the Activity [2] was “Active” and the inhibition at 1250 µg/mL [3] was 84%. The Activity [4] was “Active”, the Activity [5] was 2.5 cm and the inhibition at 300 µg/mL [6] was 81%. The Activity [7] was “Active”, the Activity [8] was 0.8 cm and the Activity [9] was “Active”. For the same molecule, the MIC80 [10] was 312 µg/mL (≈ 657 µM), the Activity [11] was “Active” and the Activity [12] was “Active”. The Activity [13] was “Active”, the Activity [14] was “inactive” and the Activity [15] was 1.2 cm. The Activity [16] was “Active”, the inhibition at 600 µg/mL [17] was 84% and the Activity [18] was “Active”. For the same molecule, the Activity [19] was “Active”, the Activity [20] was “Active” and the Activity [21] was “inactive”. The Activity [22] was “Active”, the inhibition at 40 µg/mL [23] was 6% and the Activity [24] was “Active”. The Activity [25] was “Active”, the Activity [26] was “Active” and the Activity [27] was “Active”. For the same molecule, the inhibition at 160 µg/mL [28] was 33%, the Activity [29] was “Active” and the inhibition at 80 µg/mL [30] was 18%.

In the case of `CN(C/C=C/C#CC(C)(C)C)Cc1cccc2ccccc12`, the Activity [25] is reported as “Active”.

In the case of `CC(=O)N1CCN(c2ccc(OCC3COC(Cn4ccnc4)(c4ccc(Cl)cc4Cl)O3)cc2)CC1` (stereo not given), the Activity [7] is reported as “Active”, the Activity [31] is reported as “Active” and the Activity [19] is reported as “Active”. The Activity [25] was “Active”.
